Experimental data reported in patent US10279023B2, “Mucin-associated surface protein as a vaccine against chagas disease” (BOARD OF REGENTS, THE UNIVERSITY OF TEXAS SYSTEM, priority 2013, dated 2019).

Assays:
[1] = system: C3H/HeNsd female mice; assay: Evaluation of the humoral immune response (serum antibody titers by ELISA after immunization); format: in vivo; settings: immunized mice, without the aid of any additional adjuvants
Protocol: (§1) C3H/HeNsd female mice (6-8 weeks old) were separated in five groups (4 mice/group). The immunizations were performed via intraperitoneal (i.p.) injection. One control group was immunized with phosphate buffer saline (PBS, placebo). Two control groups for the adjuvants were given 0.9% aluminum hydroxide (AIOH) and KLH at 10 μg/mouse. Two experimental groups were administered 20 μg/mouse of MASPsyn alone and combined with 0.9% aluminum hydroxide, respectively. A total of 3 immunizations every 10-15 days were administered.
Ten days after the last immunization blood was collected by tail bleeding and serum was separated from blood by centrifugation at 2,000 rpm for 10 min. The serum antibody titers were determined by an ELISA. Human Chagasic and normal serum were also tested for antibody titers against MASPsyn.

[2] = system: IL-4, IL-10, IL-12, IL-17A, and IFN-gamma; assay: Evaluation of cytokines (Mouse Inflammatory Cytokines Multi-analyte ELISArray) in immunized, challenged mice; format: in vivo; settings: without the aid of any additional adjuvants
Protocol: as §1
Four weeks post-infection, the blood was collected by tail-bleeding and a pool of serum from each experimental group was obtained as described above. Cytokines were measured using Mouse Inflammatory Cytokines Multi-analyte ELISArray Kit. FIG. 2 illustrates cytokine profiles of immunized mice following parasite challenge. Anti-inflammatory (IL-4 and IL-10) and proinflammatory (IFN-γ, IL-12, and IL-17) cytokines were assayed in triplicate by ELISA four weeks after the last immunization and approximately two weeks after the challenge. Each bar represents the mean value±SEM (n=4 animals per group) for each treatment.

[3] = system: T. cruzi Y strain trypomastigotes; assay: Challenge - parasitemia and survival of immunized mice; format: in vivo, Trypanosoma cruzi; settings: without the aid of any additional adjuvants
Protocol: as §1
Ten days after last immunization mice were inoculated via intraperitoneal injection with 1×10^5 trypomastigote Y strain, the parasitemia and survival were monitored. The parastemia were evaluated every day for the first 12 days then every third day for a total of 21 days. FIG. 1 illustrates the resulting parasitemia and survival for each of the control and experimental groups.

DAENPGGEVFNDNKKGLSRV (listed as Trypanosoma cruzi) [MASPsyn]
antibody production [1]: able to stimulate | cytokine (e.g., IL-4, IL-10, IL-12, IL-17A, and IFN-gamma) production [2]: able to stimulate | survivability of immunized-infected mice [3]: increase survivability
